The record followed here is patent US20240390340A1 (INCYTE CORPORATION, priority 2023, published 2024).

Usually IC50 stands for the concentration at which inhibition is half-maximal.

The target of assay [1] is KRAS G12D (Homo sapiens, UniProt P01116, G12D). The experiment in a line: GDP-GTP exchange assay (bodipy-GDP/GppNHp, SOS1), KRAS G12D. Type of assay: biochemical. Particulars: bodipy-loaded KRAS G12D 2.5 nM, 4 h pre-incubation; value for the most potent isomer quoted for certain compounds; read-out: G12D (KRAS G12D exchange assay IC50).
Assay [2] addresses KRAS G12V (Homo sapiens, UniProt P01116, G12V). Kind of assay: GDP-GTP exchange assay (bodipy-GDP/GppNHp, SOS1), KRAS G12V. Type of assay: biochemical. Particulars: KRAS G12V mutant; value for the most potent isomer quoted for certain compounds; read-out: G12V (KRAS G12V exchange assay IC50).

Sequence of KRAS G12D (P01116 1-188 isoform P01116-2 G12D): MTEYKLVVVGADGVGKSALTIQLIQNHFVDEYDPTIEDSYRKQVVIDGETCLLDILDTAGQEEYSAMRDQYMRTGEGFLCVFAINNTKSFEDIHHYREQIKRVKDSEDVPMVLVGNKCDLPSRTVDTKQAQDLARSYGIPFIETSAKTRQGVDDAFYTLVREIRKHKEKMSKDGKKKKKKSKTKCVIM
Sequence of KRAS G12V (P01116 1-188 isoform P01116-2 G12V): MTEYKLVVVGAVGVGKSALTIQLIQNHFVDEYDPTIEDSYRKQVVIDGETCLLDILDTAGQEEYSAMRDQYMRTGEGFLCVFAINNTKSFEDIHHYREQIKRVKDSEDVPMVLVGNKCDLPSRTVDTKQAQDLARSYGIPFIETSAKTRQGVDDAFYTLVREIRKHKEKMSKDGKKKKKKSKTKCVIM

For the compound `Cc1nc2c(F)c(-c3cccc(Cl)c3Cl)c(CCC#N)cc2c2c1cc([C@H]1C[C@H](OCc3ccnn3C(F)F)CN1C(=O)C1CC1)n2[C@H]1[C@H]2CN[C@@H]1C2` [Example 313], the IC50 in assay [1] and in assay [2] was at most 100 nM each time.
As for `COc1ncc(Cl)cc1O[C@H]1C[C@H](c2cc3c(C)nc4c(F)c(-c5cccc(Cl)c5Cl)c(CCC#N)cc4c3n2[C@H]2[C@H]3CN[C@@H]2C3)N(C(=O)C2CC2)C1` [Example 448], the half-maximal inhibitory concentration (IC50) in assay [1] and in assay [2] was at most 100 nM in each case.
Regarding `Cc1nc2c(F)c(-c3cccc(Cl)c3Cl)c(CCC#N)cc2c2c1cc([C@H]1C[C@H](O[C@H]3CCOC3)CN1C(=O)C1CC1)n2[C@H]1[C@H]2CN[C@@H]1C2` [Example 365], the half-maximal inhibitory concentration (IC50) in assay [1] and in assay [2] was at most 100 nM in each case.
`Cc1nc2c(F)c(-c3cccc(Cl)c3Cl)c(CCC#N)cc2c2c1cc([C@H]1C[C@H](Oc3cccc(Cl)c3)CN1C(=O)C1CC1)n2[C@H]1[C@H]2CN[C@@H]1C2` [Example 161]: the IC50 in assay [1] and in assay [2] was at most 100 nM each time.
In the case of `COCC1(c2cn([C@H]3C[C@H](c4cc5c(C)nc6c(F)c(-c7cccc(Cl)c7Cl)c(CCC#N)cc6c5n4[C@H]4[C@H]5CN[C@@H]4C5)N(C(=O)C4CC4)C3)nn2)CC1` [Example 383], the 50% inhibitory concentration (IC50) in assay [1] and in assay [2] was at most 100 nM throughout.
On to `Cc1nc2c(F)c(-c3cccc(Cl)c3Cl)c(CCC#N)cc2c2c1cc([C@H]1C[C@H](Oc3cccnc3OCC(F)(F)F)CN1C(=O)C1CC1)n2[C@H]1[C@H]2CN[C@@H]1C2` [Example 446], for which the concentration for half-maximal inhibition (IC50) in assay [1] and in assay [2] was at most 100 nM in each case.
For `N#CCCc1cc2c(nc(-c3ccc(N4CCOCC4)nc3)c3cc([C@H]4C[C@H](OCc5c(F)cccc5F)CN4C(=O)C4CC4)n([C@H]4[C@H]5CN[C@@H]4C5)c32)c(F)c1-c1cccc(Cl)c1Cl` [Example 206], the concentration for half-maximal inhibition (IC50) was 100 to 1000 nM in assay [1] and at most 100 nM in assay [2].
For `Cc1nc2c(F)c(-c3cccc(Cl)c3Cl)c(CCC#N)cc2c2c1cc([C@H]1C[C@H](n3nncc3-c3ccccc3)CN1C(=O)C1CC1)n2[C@H]1[C@H]2CN[C@@H]1C2` [Example 143], the IC50 in assay [1] and in assay [2] was at most 100 nM in each case.
For `Cc1nc2c(F)c(-c3cccc(Cl)c3Cl)c(CCC#N)cc2c2c1cc([C@H]1C[C@H](n3cc(C4(C)CCC4)nn3)CN1C(=O)C1CC1)n2[C@H]1[C@H]2CN[C@@H]1C2` [Example 384], the IC50 in assay [1] and in assay [2] was at most 100 nM throughout.
In the case of `Cc1nc2c(F)c(-c3cccc(Cl)c3Cl)c(CCC#N)cc2c2c1cc([C@H]1C[C@H](n3cccn3)CN1C(=O)C1CC1)n2[C@H]1[C@H]2CN[C@@H]1C2` [Example 314], the IC50 in assay [1] and in assay [2] was at most 100 nM in each case.
In the case of `[2H]C([2H])(O[C@H]1C[C@H](c2cc3c(C)nc4c(F)c(-c5cccc(Cl)c5Cl)c(CCC#N)cc4c3n2[C@H]2[C@H]3CN[C@@H]2C3)N(C(=O)C2CC2)C1)c1nccs1` [Example 362], the IC50 in assay [1] and in assay [2] was at most 100 nM in each case.
Turning to `Cc1nc2c(F)c(-c3cccc(Cl)c3Cl)c(CCC#N)cc2c2c1cc([C@H]1C[C@H](n3cc(-c4ccccc4)cn3)CN1C(=O)C1CC1)n2[C@H]1[C@H]2CN[C@@H]1C2` [Example 354], the half-inhibitory concentration (IC50) in assay [1] was at most 100 nM; in assay [2], 100 to 1000 nM.
With `Cc1nc2c(F)c(-c3cccc(Cl)c3Cl)c(CCC#N)cc2c2c1cc([C@H]1C[C@H](OC[C@@H]3CCCN3)CN1C(=O)C1CC1)n2[C@H]1[C@H]2CN[C@@H]1C2` [Example 449], the IC50 in assay [1] and in assay [2] was at most 100 nM throughout.
Take `Cc1nc2c(F)c(-c3cccc(Cl)c3Cl)c(CCC#N)cc2c2c1cc([C@H]1C[C@H](Oc3cc(Cl)cc(C#N)c3)CN1C(=O)C1CC1)n2[C@H]1[C@H]2CN[C@@H]1C2` [Example 191]: the IC50 in assay [1] and in assay [2] was at most 100 nM in each case.
Take `Cc1nc2c(F)c(-c3cccc(Cl)c3Cl)c(CCC#N)cc2c2c1cc([C@H]1C[C@H](Oc3ccc(=O)n(C)c3)CN1C(=O)C1CC1)n2[C@H]1[C@H]2CN[C@@H]1C2` [Example 420]: the IC50 in assay [1] and in assay [2] was at most 100 nM in each case.
For `Cc1csnc1CO[C@H]1C[C@H](c2cc3c(C)nc4c(F)c(-c5cccc(Cl)c5Cl)c(CCC#N)cc4c3n2[C@H]2[C@H]3CN[C@@H]2C3)N(C(=O)C2CC2)[C@@H]1C` [Example 232], the half-maximal inhibitory concentration (IC50) in assay [1] and in assay [2] was at most 100 nM throughout.
With `Cc1nc2c(F)c(-c3cccc(Cl)c3Cl)c(CCC#N)cc2c2c1cc([C@H]1C[C@H](n3cc(C(C)(C)C(F)F)nn3)CN1C(=O)C1CC1)n2[C@H]1C2CNC1C2` (stereo partly drawn) [Example 225], the IC50 in assay [1] and in assay [2] was at most 100 nM throughout.
As for `Cc1nc2c(F)c(-c3cccc(Cl)c3Cl)c(CCC#N)cc2c2c1cc([C@H]1C[C@H](OCC3(C#N)CCC3)CN1C(=O)C1CC1)n2[C@H]1[C@H]2CN[C@@H]1C2` [Example 339], the IC50 in assay [1] and in assay [2] was at most 100 nM in each case.
Take `Cc1nc2c(F)c(-c3cccc(Cl)c3Cl)c(CCC#N)cc2c2c1cc([C@H]1C[C@H](OCc3ccns3)CN1C(=O)C1CC1)n2[C@H]1[C@H]2CN[C@@H]1C2` [Example 257]: the IC50 in assay [1] and in assay [2] was at most 100 nM throughout.
With `Cc1nc2c(F)c(-c3cccc(Cl)c3Cl)c(CCC#N)cc2c2c1cc([C@H]1C[C@H](n3cncn3)CN1C(=O)C1CC1)n2[C@H]1[C@H]2CN[C@@H]1C2` [Example 276], the IC50 in assay [1] and in assay [2] was at most 100 nM throughout.
`Cc1nc2c(F)c(-c3cccc(Cl)c3Cl)c(CCC#N)cc2c2c1cc([C@H]1C[C@H](OC[C@@H]3CCOC3)CN1C(=O)C1CC1)n2[C@H]1[C@H]2CN[C@@H]1C2` [Example 373]: the half-maximal inhibitory concentration (IC50) in assay [1] and in assay [2] was at most 100 nM in each case.
In the case of `Cc1nc2c(F)c(-c3cccc(Cl)c3Cl)c(CCC#N)cc2c2c1cc([C@H]1C[C@H](n3cc(C4(CF)CC4)nn3)CN1C(=O)C1CC1)n2[C@H]1[C@H]2CN[C@@H]1C2` [Example 381], the IC50 in assay [1] and in assay [2] was at most 100 nM in each case.
`COc1ncc(F)cc1O[C@H]1C[C@H](c2cc3c(C)nc4c(F)c(-c5cccc(Cl)c5Cl)c(CCC#N)cc4c3n2[C@H]2[C@H]3CN[C@@H]2C3)N(C(=O)C2CC2)C1` [Example 447]: the IC50 in assay [1] and in assay [2] was at most 100 nM in each case.
With `Cc1nc2c(F)c(-c3cccc(Cl)c3Cl)c(CCC#N)cc2c2c1cc([C@H]1C[C@H](OCc3c(Cl)cccc3Cl)CN1C(=O)C1CC1)n2[C@H]1[C@H]2CN[C@@H]1C2` [Example 116], the IC50 in assay [1] and in assay [2] was at most 100 nM in each case.
Consider `Cc1nc2c(F)c(-c3cccc(Cl)c3Cl)c(CCC#N)cc2c2c1cc([C@H]1C[C@H](Oc3ccc(N)nc3)CN1C(=O)C1CC1)n2[C@H]1[C@H]2CN[C@@H]1C2` [Example 296], for which the IC50 in assay [1] and in assay [2] was at most 100 nM in each case.
Turning to `Cc1nc2c(F)c(-c3cccc(Cl)c3Cl)c(CCC#N)cc2c2c1cc([C@H]1C[C@H](OCC3CCCCC3)CN1C(=O)C1CC1)n2[C@H]1[C@H]2CN[C@@H]1C2` [Example 86], the concentration for half-maximal inhibition (IC50) in assay [1] and in assay [2] was at most 100 nM throughout.
For the compound `Cc1nc(CO[C@H]2C[C@H](c3cc4c(C)nc5c(F)c(-c6cccc(Cl)c6Cl)c(CCC#N)cc5c4n3[C@H]3[C@H]4CN[C@@H]3C4)N(C(=O)C3(C)CC3)C2)cs1` [Example 128], the IC50 in assay [1] and in assay [2] was at most 100 nM in each case.
With `Cc1nc(O[C@H]2C[C@H](c3cc4c(C)nc5c(F)c(-c6cccc(Cl)c6Cl)c(CCC#N)cc5c4n3[C@H]3[C@H]4CN[C@@H]3C4)N(C(=O)C3CC3)C2)ccc1C#N` [Example 306], the IC50 in assay [1] and in assay [2] was at most 100 nM in each case.
On to `Cc1nc2c(F)c(-c3cccc(Cl)c3Cl)c(CCC#N)cc2c2c1cc([C@H]1C[C@H](n3cc(C#N)cn3)CN1C(=O)C1CC1)n2[C@H]1[C@H]2CN[C@@H]1C2` [Example 281], for which the IC50 in assay [1] and in assay [2] was at most 100 nM each time.
In the case of `Cc1nc2c(F)c(-c3cccc(Cl)c3Cl)c(CCC#N)cc2c2c1cc([C@H]1C[C@H](n3nnc(-c4ccncc4)n3)CN1C(=O)C1CC1)n2[C@H]1[C@H]2CN[C@@H]1C2` (atropisomer, axis not shown) [Example 437], the half-inhibitory concentration (IC50) in assay [1] and in assay [2] was at most 100 nM in each case.
Take `COc1ccc(F)c(CO[C@H]2C[C@H](c3cc4c(C)nc5c(F)c(-c6cccc(Cl)c6Cl)c(CCC#N)cc5c4n3[C@H]3[C@H]4CN[C@@H]3C4)N(C(=O)C3CC3)C2)c1F` [Example 186]: the IC50 in assay [1] and in assay [2] was at most 100 nM each time.
For `CCn1cc(CO[C@H]2C[C@H](c3cc4c(C)nc5c(F)c(-c6cccc(Cl)c6Cl)c(CCC#N)cc5c4n3[C@H]3[C@H]4CN[C@@H]3C4)N(C(=O)C3CC3)C2)nn1` [Example 231], the 50% inhibitory concentration (IC50) in assay [1] and in assay [2] was at most 100 nM in each case.
As for `Cc1nc2c(F)c(-c3cccc(Cl)c3Cl)c(CCC#N)cc2c2c1cc([C@H]1C[C@H](OCc3cccc(C#N)c3F)CN1C(=O)C1CC1)n2[C@H]1[C@H]2CN[C@@H]1C2` [Example 151], the IC50 in assay [1] and in assay [2] was at most 100 nM in each case.
Consider `Cc1ccncc1O[C@H]1C[C@H](c2cc3c(C)nc4c(F)c(-c5cccc(Cl)c5Cl)c(CCC#N)cc4c3n2[C@H]2[C@H]3CN[C@@H]2C3)N(C(=O)C2CC2)C1` [Example 130], for which the IC50 in assay [1] and in assay [2] was at most 100 nM throughout.
For `Cc1nc2c(F)c(-c3cccc(Cl)c3Cl)c(CCC#N)cc2c2c1cc([C@H]1C[C@H](n3c(=O)n(C)c4ccccc43)CN1C(=O)C1CC1)n2[C@H]1[C@H]2CN[C@@H]1C2` [Example 321], the IC50 was at most 100 nM in assay [1] and 100 to 1000 nM in assay [2].
For the compound `Cc1nc2c(F)c(-c3cccc(Cl)c3Cl)c(CCC#N)cc2c2c1cc([C@H]1C[C@H](Oc3ccc4ccccc4n3)CN1C(=O)C1CC1)n2[C@H]1[C@H]2CN[C@@H]1C2` [Example 121], the IC50 in assay [1] and in assay [2] was at most 100 nM throughout.
